Calls of active or inactive are those of the source. The rule behind the calls is not given here.
Legend:
[1] = target: T1, Polyunsaturated fatty acid 5-lipoxygenase (Homo sapiens) (UniProt P09917); experiment: Inhibition of human recombinant 5-LOX expressed in Escherichia coli BL21(DE3) assessed as enzyme remaining activity at 10 uM using arachidonic acid as substrate preincubated with compound for 15 mins followed by substrate and CaCl2 addition measured after 10 mins by RP-HPLC analysis relative to control; details: time 25.0 min
T1 sequence (whole entry): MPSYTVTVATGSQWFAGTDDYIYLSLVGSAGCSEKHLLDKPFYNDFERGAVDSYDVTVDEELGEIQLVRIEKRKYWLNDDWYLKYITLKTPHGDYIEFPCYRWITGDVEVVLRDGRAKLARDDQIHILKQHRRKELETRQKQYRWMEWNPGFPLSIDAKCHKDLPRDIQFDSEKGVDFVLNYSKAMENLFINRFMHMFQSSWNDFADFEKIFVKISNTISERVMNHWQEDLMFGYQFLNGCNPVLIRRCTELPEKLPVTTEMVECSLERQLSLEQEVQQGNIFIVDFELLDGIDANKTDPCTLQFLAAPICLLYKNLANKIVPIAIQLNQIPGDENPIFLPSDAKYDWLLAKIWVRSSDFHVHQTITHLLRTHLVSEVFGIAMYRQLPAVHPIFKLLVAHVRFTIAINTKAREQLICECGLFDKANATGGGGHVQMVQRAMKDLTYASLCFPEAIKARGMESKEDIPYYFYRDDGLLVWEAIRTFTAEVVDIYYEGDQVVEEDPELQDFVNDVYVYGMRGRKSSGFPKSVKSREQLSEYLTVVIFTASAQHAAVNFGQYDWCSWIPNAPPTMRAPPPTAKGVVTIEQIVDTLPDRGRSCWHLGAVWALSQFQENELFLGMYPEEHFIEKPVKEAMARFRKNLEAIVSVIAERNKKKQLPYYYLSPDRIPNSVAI

[2] = target: T1, Polyunsaturated fatty acid 5-lipoxygenase (Homo sapiens); experiment: Inhibition of 5-LOX in human Neutrophil assessed as enzyme remaining activity at 10 uM preincubated with compound for 15 mins followed by A23187 addition measured after 10 mins by RP-HPLC analysis relative to control; format: cell-based; details: time 25.0 min
[3] = target: T1, Polyunsaturated fatty acid 5-lipoxygenase (Homo sapiens); experiment: Inhibition of 5-LOX in human Neutrophil assessed as enzyme remaining activity at 10 uM using arachidonic acid as substrate preincubated with compound for 15 mins followed by substrate and A23187 addition measured after 10 mins by RP-HPLC analysis relative to control; format: cell-based; details: time 25.0 min
[4] = target: T2, Prostaglandin E synthase (Homo sapiens) (UniProt O14684); experiment: Inhibition of human mPGES-1 assessed as enzyme remaining activity at 10 uM relative to control
T2 sequence (whole entry): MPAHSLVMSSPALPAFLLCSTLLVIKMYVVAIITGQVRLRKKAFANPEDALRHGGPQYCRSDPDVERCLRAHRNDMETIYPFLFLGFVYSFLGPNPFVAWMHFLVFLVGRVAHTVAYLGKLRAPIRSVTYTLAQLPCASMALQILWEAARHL

[5] = target: T3, Bifunctional epoxide hydrolase 2 (Homo sapiens) (UniProt P34913); experiment: Inhibition of human sEH assessed as enzyme remaining activity at 10 uM relative to control
T3 sequence (whole entry): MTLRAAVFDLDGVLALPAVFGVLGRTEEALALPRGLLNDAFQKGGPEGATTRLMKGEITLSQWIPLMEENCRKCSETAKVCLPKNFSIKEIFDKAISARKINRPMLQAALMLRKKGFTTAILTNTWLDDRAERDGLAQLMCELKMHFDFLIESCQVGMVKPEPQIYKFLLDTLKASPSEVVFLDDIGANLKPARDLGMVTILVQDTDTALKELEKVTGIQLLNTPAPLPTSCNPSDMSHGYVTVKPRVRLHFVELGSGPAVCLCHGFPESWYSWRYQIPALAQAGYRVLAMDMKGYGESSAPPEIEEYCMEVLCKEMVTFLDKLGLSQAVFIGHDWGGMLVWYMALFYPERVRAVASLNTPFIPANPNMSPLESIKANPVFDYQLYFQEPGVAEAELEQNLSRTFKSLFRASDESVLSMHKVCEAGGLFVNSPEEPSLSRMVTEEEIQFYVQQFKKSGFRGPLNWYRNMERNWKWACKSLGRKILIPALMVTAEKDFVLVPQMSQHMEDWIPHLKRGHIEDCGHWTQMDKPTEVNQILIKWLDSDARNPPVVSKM

[6] = target: T1, Polyunsaturated fatty acid 5-lipoxygenase (Homo sapiens); experiment: Inhibition of 5-LOX in human Neutrophil at 10 uM preincubated with compound for 15 mins followed by A23187 addition measured after 10 mins by RP-HPLC analysis relative to control; format: cell-based; details: time 25.0 min
[7] = target: T3, Bifunctional epoxide hydrolase 2 (Homo sapiens); experiment: Inhibition of human sEH at 10 uM relative to control
[8] = target: T2, Prostaglandin E synthase (Homo sapiens); experiment: Inhibition of human mPGES-1 at 10 uM relative to control

| SMILES | Activity [1] [%] | Activity [2] [%] | Activity [3] [%] | Activity [4] [%] | Activity [5] [%] | inhibition [6] | inhibition [7] [%] | inhibition [8] |
| --- | --- | --- | --- | --- | --- | --- | --- | --- |
| Cn1c(=O)c2nc(CCCc3nc4ccccc4[nH]3)[nH]c2n(C)c1=O | 98.5 | 113 | 98.3 | 90.9 | 92.7 | inactive | > 35 | inactive |
| NS(=O)(=O)c1ccc(NCc2cnc3ccccc3c2)cc1 | 96.5 | 90.6 | 95.3 | 86.3 | 112 | inactive | > 35 | inactive |
| O=C(c1nc2ccc(Cl)cc2nc1O)C(O)c1ccc2c(c1)OCO2 (stereo not given) | 81.2 | 101 | 90.7 | 89.4 | 93.8 | inactive | > 35 | inactive |
| N=c1[nH]nc2nc(CC(=O)c3ccc4ccccc4c3)c(=O)[nH]n12 |  |  |  |  |  | inactive | > 35 | inactive |
| CC(=O)c1ccc(NCN2C(=O)c3ccccc3C2=O)cc1 | 97.2 | 72.8 | 91.8 | 47.6 | 102 | inactive | > 35 | > 50% |
| O=C1Nc2ccccc2/C1=N/NS(=O)(=O)c1ccc(C(=O)O)cc1 | 105 | 93.1 | 88.2 | 94.2 | 111 | inactive | > 35 | inactive |
| CC(=O)NC(CC(=O)Nc1cccc2c1Cc1ccccc1-2)C(=O)O (stereo not given) | 107 | 94.2 | 102 | 96.3 | 81 | inactive | > 35 | inactive |
| CC(=O)c1cccc(NC(=O)Oc2ccc3c(C)cc(=O)oc3c2)c1 | 115 | 104 | 106 | 93.4 | 196 | inactive | > 35 | inactive |
| Cc1ccn(C(=O)C2=Cc3ccccc3OC2)c(=N)c1 |  |  |  | 84.3 | 121 | inactive | > 35 | inactive |
| O=C1C(C(O)c2ccccc2)CCCC1C(O)c1ccccc1 (stereo not given) | 103 | 152 | 77.9 | 81.1 | 132 | inactive | > 35 | inactive |
| Cc1ccc(Nc2nnc(-c3ccc4c(c3)OCO4)o2)c(C)c1 | 14 | 106 | 69.8 | 57.9 | 90.6 | inactive | > 35 | < 40% |
| N=c1c2c(ncn1Cc1ccccc1)CCN(Cc1ccccc1)C2 | 96.2 | 82.3 | 80.1 | 93.9 | 91.6 | inactive | > 35 | inactive |
| O=C(O)c1cnc2cc(OCCc3ccc(F)cc3)ccc2c1O | 66.9 | 89.1 | 87.6 | 75.9 | 72.5 | inactive | > 35 | inactive |
| O=C(c1ccc2ccccc2n1)C(O)c1ccc2ccccc2n1 (stereo not given) | 99.8 | 111 | 99.6 |  |  | inactive | > 35 | inactive |

Other lines, results leading:

| Activity [1] [%] | Activity [2] [%] | Activity [3] [%] | Activity [4] [%] | Activity [5] [%] | inhibition [6] | inhibition [7] [%] | inhibition [8] | SMILES |
| --- | --- | --- | --- | --- | --- | --- | --- | --- |
| 58.3 | 85.5 | 68 | 40.9 | 92.9 | inactive | > 35 | > 50% | N=C(N)/N=C(/C=C/c1ccccc1)CC1OC(=O)c2ccccc21 (stereo not given) |
| 110 | 105 | 103 | 86.5 | 87.4 | inactive | > 35 | inactive | O=C(O)c1ccccc1C(=O)OC1CCc2ccccc2C1 (stereo not given) |
| 106 | 102 | 110 | 92.7 | 98.7 | inactive | > 35 | inactive | O=C1CCC(CCc2nc3ccccc3[nH]2)(c2ccccc2)C(=O)N1 (stereo not given) |
| 94.4 | 121 | 102 | 83.6 | 99.9 | inactive | > 35 | inactive | O=C1N=C(Nc2nc3ccccc3[nH]2)OC1c1ccccc1 (stereo not given) |
| 67.6 | 47.6 | 60.1 | 52.6 | 108 | inactive | > 35 | < 40% | O=C(/C=C/c1ccccc1)CCc1c(O)c2ccccc2oc1=O |
| 90.4 | 100 | 99.2 | 92.5 | 41.5 | inactive | 58 | inactive | O=C1c2ccccc2C(=O)N1CCc1nc(-c2ccccc2)c[nH]1 |
| 91.1 | 87.9 | 79.5 | 88.2 | 75.7 | inactive | > 35 | inactive | Cc1cc(=O)oc(C)c1C(=O)Oc1ccc2ccccc2c1 |
| 75.1 | 80.2 | 93.1 | 80.5 | 92.9 | inactive | > 35 | inactive | NNC(=O)CCc1ccc2ccc3ccccc3c2c1 |
|  |  |  | 98.3 | 147 | inactive | > 35 | inactive | O=C(O)c1cc(O)c2cc(Cc3ccccc3)ccc2n1 |
| 110 | 105 | 80.6 | 27.4 | 101 | inactive | > 35 | > 50% | O=C1C(=O)C(CCc2ccccc2)C(=O)/C1=C/c1ccccc1 (stereo not given) |
| 105 | 81.6 | 94.9 | 59 | 79.7 | inactive | > 35 | < 40% | CC(=O)c1cccc2cc(CC(=O)c3ccccc3)c(=O)oc12 |
|  |  |  | 98.2 | 88.2 | inactive | > 35 | inactive | O=C(/C=C/c1ccccc1)NCCC1(O)C(=O)Nc2ccccc21 (stereo not given) |
| 96.4 | 97 | 92.4 | 88.1 | 91.4 | inactive | > 35 | inactive | O=C(NCc1ccco1)Nc1cccc(-c2ccccc2)c1 |

From ChEMBL document CHEMBL5528002, “Identification of selective 5-LOX and FLAP inhibitors as novel anti-inflammatory agents by ligand-based virtual screening” (Eur J Med Chem, 2024)
